Source: patent US8697387B2, “Methods for identifying agents and their use for the prevention of restenosis” (DiscoverRx Corporation, priority 2006, dated 2014)
Where a name gives a salt, the structure may show the parent alone. *1 amine or outer side, *2 acyl side, *3 side chain or, on linkers, in order; H or OH if unused. Where a SMILES comes first, the peptide text is derived from it. Bridges are numbered along the chain shown (N, C = ends). Roman numbers before positions name the chains, in order. [ ]: non-standard residue; d: D form. Actinocin(9to1) = Cc1c2oc3c(C)ccc(C(=O)[*:1])c3nc-2c(C(=O)[*:2])c(N)c1=O; NMeV = CN[C@H](C(=O)O)C(C)C; Sar = CNCC(=O)O

Tests used:
[1] = system: BioMAP Systems cells (SRB total protein, PBMC viability, cell morphology); experiment: Toxicity assessments in BioMAP Systems (SRB, PI, visual)
Experimental: Adverse effects of compounds on cells were determined by (1) measuring alterations in total protein (Sulforodhamine B or SRB assay); (2) measuring the viability of peripheral blood mononuclear cells (incorporation of propidium iodide, PI); and (3) microscopic visualization. SRB was performed by staining cells with 0.1% sulforhodamine B after fixation with 10% TCA, and reading wells at 560 nm. PBMC viability was assessed by adding propidium iodide (10 microgram/ml) to PBMC that had been cultured for 24 hours in the presence of activators and measuring the percentage of cells that incorporated dye by flow cytometry after 10 minutes. Samples were assessed visually according to the following scheme: 2.0=cobblestone (unactivated phenotype); 1.0=activated (normal phenotype); 0.5=lacy or sparse; 0.375=rounded; 0.25=sparse and granular; 0.1=no cells in well.
Cellular toxicity in BioMAP Systems is indicated if the SRB parameter (sulforhodamine B, measure of total protein loss) is <−0.3, the PI parameter (propidium iodine, measure of lymphotoxicity) is <−0.1, and the Visual parameter (change in cell morphology) is <−0.6.

[2] = system: BioMAP Systems (human primary cell-based assay systems: endothelial cells, smooth muscle cells, PBMC, fibroblasts); experiment: BioMAP Systems screen scored for desired anti-restenosis parameter modulation; conditions: for Total score for desired parameter modulation, Score (out of 45): 1 point per desired activity present across BioMAP systems of Table 2, paclitaxel average of 11 runs, rapamycin average of 13 runs
Text: The BioMAP Systems that model the relevant biological processes (smooth muscle cell hyperplasia, tissue remodeling, inflammation etc, including the measurements of readout parameters listed in Table 1), and are used for screening are listed in Table 2. Each of the cells listed in Table 1 can be utilized in one or more of the systems described below. For example, smooth muscle cells are used in CASM3C; CASMNo; SM3C and SMNo systems. Such BioMap systems are generally primary human cell based assays. Compounds are screened in one or more such BioMap systems, usually in at least about two such systems, and may be screened in at least three, at least four, at least five, at least ten, and up to all of the assays set forth in Table 2.
These assays are scored according to their modulation of the selected readout parameters.
Human umbilical vein endothelial cells (HUVEC) were pooled from multiple donors, cultured according to standard methods, and plated into microtiter plates at passage 4. Human neonatal foreskin fibroblasts (HDF) from 3 donors were pooled and cultured according to standard methods. 24 hr before stimulation with cytokines, confluent HDF in microtitre plates were serum starved. Coronary artery endothelial cells (CAEC), coronary artery smooth muscle cells (CASMC) and umbilical artery smooth muscle cells (SMC) cultured according to standard methods. Peripheral blood mononuclear cells (PBMC) were prepared from buffy coats from normal human donors according to standard methods. Concentrations/amounts of agents added to confluent microtitre plates to build each system were as follows: cytokines (IL-1 beta, 1 ng/ml; TNF-alpha, 5 ng/ml; IFN-gamma, 20 ng/ml; TGF-beta, 5 ng/ml; IL-4, 5 ng/ml), activators (histamine, 10 microM; SAg, 20 ng/ml or LPS, 0.2 ng/ml), PBMC (7.5×10^4 cells/well).
Compounds were prepared in the solvent as directed, added 1 hr before stimulation of the cells, and were present during the 24 hr stimulation period for the measurement of parameters listed in Table 2. For proliferation, compounds added 1 hr before stimulation of the cells with cytokines, and were present during the 96 hr. If prepared in DMSO, the final concentration of solvent was 0.1% or less.
The levels of readout parameters were measured by ELISA. Briefly, microtiter plates are treated, blocked, and then incubated with primary antibodies or isotype control antibodies (0.01-0.5 microg/ml) for 1 hr. After washing, plates were incubated with a peroxidase-conjugated anti-mouse IgG secondary antibody or a biotin-conjugated anti-mouse IgG antibody for 1 hr followed by streptavidin-HRP for 30 min. Plates were washed and developed with TMB substrate and the absorbance (OD) was read at 450 nm (subtracting the background absorbance at 650 nm). Quantitation of TNF-alpha in the LPS system was done using a commercially available kit according to the manufacturer's directions. Proliferation of endothelial cells (HUVEC and CAEC), smooth muscle cels (SMC and CASMC), and PBMC (T cells) was quantitated by Alamar blue or SRB reduction.
Mean OD values for each parameter were calculated from triplicate samples per experiment. The mean value obtained for each parameter in a treated sample was then divided by the mean value from an appropriate control to generate a ratio. All ratios were then log10 transformed. 99% prediction envelopes (grey shading in Figures) were calculated for historical controls.

[3] = system: neointimal hyperplasia after balloon vascular injury; conditions: rat; reported by Pan et al., 2003; cited from earlier work
[4] = system: smooth muscle cell proliferation relative to endothelial cell proliferation; experiment: Proliferation of smooth muscle cells relative to endothelial cells in BioMAP systems 3C, SM3C, CANo, CASMNO, CA3C, CASM3C; type: cell-based, human; conditions: all conditions, all doses tested, independent of source of primary cells
Text: One can further refine the selection of drugs for the treatment of restenosis by measuring their relative effects at multiple doses on proliferation of smooth muscle cells and endothelial cells derived from different sources (umbilical cord or coronary artery), and under different growth conditions (proliferation driven by growth factors only, or in the presence of pro-inflammatory factors that are normally found at the restenotic site). Statistical analysis of cell proliferation in BioMAP systems 3C, SM3C, CANo, CASMNO, CA3C, and CASM3C listed in Table 1 was performed for candidate drugs 8-Azaguanine, Amodiaquin Dihydrochloride Dihydrate, Atovaquone, Ciclopirox, Cis-(Z)-Flupentixol Dihydrochloride, Clofilium Tosylate, Monobenzone, Primaquine Diphosphate, Securinine, Syrosingopine, Terconazole, and Trimethylcolchicinic Acid. […]
The levels of readout parameters were measured by ELISA. […] Plates were washed and developed with TMB substrate and the absorbance (OD) was read at 450 nm (subtracting the background absorbance at 650 nm). Quantitation of TNF-alpha in the LPS system was done using a commercially available kit according to the manufacturer's directions. Proliferation of endothelial cells (HUVEC and CAEC), smooth muscle cels (SMC and CASMC), and PBMC (T cells) was quantitated by Alamar blue or SRB reduction. […]

| Compound | Total score for desired parameter modulation, Score (out of 45) [2] | further results |
| --- | --- | --- |
| Cc1c2oc3c(C)ccc(C(=O)N[C@@H]4C(=O)N[C@H](C(C)C)C(=O)N5CCC[C@H]5C(=O)N(C)CC(=O)N(C)[C@@H](C(C)C)C(=O)O[C@@H]4C)c3nc-2c(C(=O)N[C@@H]2C(=O)N[C@H](C(C)C)C(=O)N3CCC[C@H]3C(=O)N(C)CC(=O)N(C)[C@@H](C(C)C)C(=O)O[C@@H]2C)c(N)c1=O [Actinomycin D] (I: T[dV]P[Sar][NMeV] / II: T[dV]P[Sar][NMeV]; ester I:1-I:C, II:1-II:C; linker I:N-II:N via Actinocin(9to1)) | – | Dose showing signs of cellular toxicity ([1]; BioMAP Systems): 0.004572 µM; Doses at which inactive in BioMAP Systems (lower than) [2]: < 0.5 nM |
| Nc1nc2nn[nH]c2c(=O)[nH]1 [Drug 8-Azaguanine, 8-Azaguanine] | 28 | – |
| C=C(C)[C@@H]1CC[C@]2(CO)CC[C@]3(C)[C@H](CC[C@@H]4[C@@]5(C)CC[C@H](O)C(C)(C)[C@@H]5CC[C@]43C)[C@@H]12 [Betulin] | 31 | – |
| Clofilium Tosylate | 22 | – |
| COc1cc(NC(C)CCCN)c2ncccc2c1 (stereo not drawn) [Primaquine Diphosphate] | 27 | – |
| Cc1cc(C2CCCCC2)n(O)c(=O)c1 [Ciclopirox Ethanolamine] | 20 | – |
| COC(=O)C1=C(C)NC(C)=C(C(=O)OC)C1c1ccccc1[N+](=O)[O-] [Nifedipine] | 28 | – |
| O=c1ccc2cc(O)c(O)cc2o1 [Esculetin] | 25 | Effect on neointimal hyperplasia after balloon vascular injury [3]: inhibit neointimal hyperplasia |
| C[C@@H]1C[C@H]2[C@@H]3CCC4=CC(=O)C=C[C@]4(C)[C@@]3(F)[C@@H](O)C[C@]2(C)[C@@]1(O)C(=O)CO [dexamethasone] | – | Signs of toxicity in BioMAP Systems [1]: no signs of toxicity |
| COc1cc2nc(N3CCN(C(=O)C4COc5ccccc5O4)CC3)nc(N)c2cc1OC (stereo not drawn) [Doxazosin Mesylate] | 22 | – |
| Oc1ccc(OCc2ccccc2)cc1 [Monobenzene] | 24 | – |
| C[C@]12CC[C@@H]3c4ccc(O)cc4CC[C@H]3[C@@H]1CC[C@@H]2O [17beta-estradiol] | – | Dose showing signs of cellular toxicity ([1]; human): 10 µM; Doses at which inactive in BioMAP Systems (lower than) [2]: < 3300 nM |
| COc1cc2c(c(OC)c1OC)-c1ccc(O)c(=O)cc1C(N)CC2 (stereo not drawn) [Trimethylcolchicinic Acid] | 29 | Preferential effect on smooth muscle cell versus endothelial cell proliferation [4]: preferential effect on smooth muscle cells over endothelial cells |
| O=C1C(O)=C([C@H]2CC[C@H](c3ccc(Cl)cc3)CC2)C(=O)c2ccccc21 [Atovaquone] | 22 | – |
| CC(=O)O[C@H]1C(=O)[C@@]2(C)[C@H]([C@H](OC(=O)c3ccccc3)[C@]3(O)C[C@H](OC(=O)[C@H](O)[C@@H](NC(=O)c4ccccc4)c4ccccc4)C(C)=C1C3(C)C)[C@]1(OC(C)=O)CO[C@@H]1C[C@@H]2O [Paclitaxel] | 26 ± 2 | Signs of toxicity in BioMAP Systems [1]: no signs of toxicity; Activity over tested dose range in BioMAP Systems ([2]; tested doses): active over the entire dose range |
| O=C(O)CCCc1ccc(N(CCCl)CCCl)cc1 [Chlorambucil] | 30 | – |
| CCOC(=O)Oc1c(OC)cc(C(=O)O[C@@H]2C[C@@H]3CN4CCc5c([nH]c6cc(OC)ccc56)[C@H]4C[C@@H]3[C@H](C(=O)OC)[C@H]2OC)cc1OC [Syrosingopine] | 22 | – |
| O=C1C=C2C=C[C@@H]3C[C@@]2(O1)[C@H]1CCCCN31 [Securinine] | 28 | – |
| Cl.Cl.OCCN1CCN(CC/C=C2/c3ccccc3Sc3ccc(C(F)(F)F)cc32)CC1 [Cis-(Z)-Flupentixol Dihydrochloride] | 33 | – |
| CO[C@H]1C[C@@H]2CC[C@@H](C)[C@@](O)(O2)C(=O)C(=O)N2CCCC[C@H]2C(=O)O[C@H]([C@H](C)C[C@@H]2CC[C@@H](O)[C@H](OC)C2)CC(=O)[C@H](C)/C=C(\C)[C@@H](O)[C@@H](OC)C(=O)[C@H](C)C[C@H](C)/C=C/C=C/C=C/1C [Rapamycin] | 24 ± 1 | Signs of toxicity in BioMAP Systems [1]: no signs of toxicity |
| CC(=O)N(O)CCCCCNC(=O)CCC(=O)N(O)CCCCCNC(=O)CCC(=O)N(O)CCCCCN [Deferoxamine Mesylate] | 26 | – |
| CC(C)N1CCN(c2ccc(OCC3COC(Cn4cncn4)(c4ccc(Cl)cc4Cl)O3)cc2)CC1 (stereo not drawn) [Terconazole] | 22 | – |
| CCN(CC)Cc1cc(Nc2ccnc3cc(Cl)ccc23)ccc1O [Amodiaquin Dihydrochloride Dihydrate] | 23 | – |
